US12011444B2, “N-substituted indole derivatives as PGE2 receptor modulators” (Idorsia Pharmaceuticals Ltd, priority 2015, dated 2024)

Columns and labels:
PTRGER4 (EP4) = PTRGER4 (EP4) (Homo sapiens (Human), UniProt P35408); experiment: hEP4 b-arrestin assay (PathHunter HEK 293 PTGER4 b-arrestin cells); format: cell-based; details: antagonistic activity on hEP4; mean where measured multiple times
Outline: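 Stably transfected HEK293 cells carrying EP4–ProLink and β-arrestin 2–EA (β-gal fragment complementation), pre-incubated with compound 15 min at 37 °C, then stimulated with PGE2 (20 nM final) for 120 min at 37 °C. Chemiluminescence read after 1 h detection reagent at room temperature; activity per concentration expressed as percent of DMSO control.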

PTGER2 (EP2) = PTGER2 (EP2) (Homo sapiens (Human), UniProt P43116); experiment: hEP2 b-arrestin assay (PathHunter HEK 293 PTGER2 b-arrestin cells); format: cell-based; details: antagonistic activity on hEP2; mean where measured multiple times
Sequence of PTGER2 (EP2) (P43116 whole entry, the tested form may be a part): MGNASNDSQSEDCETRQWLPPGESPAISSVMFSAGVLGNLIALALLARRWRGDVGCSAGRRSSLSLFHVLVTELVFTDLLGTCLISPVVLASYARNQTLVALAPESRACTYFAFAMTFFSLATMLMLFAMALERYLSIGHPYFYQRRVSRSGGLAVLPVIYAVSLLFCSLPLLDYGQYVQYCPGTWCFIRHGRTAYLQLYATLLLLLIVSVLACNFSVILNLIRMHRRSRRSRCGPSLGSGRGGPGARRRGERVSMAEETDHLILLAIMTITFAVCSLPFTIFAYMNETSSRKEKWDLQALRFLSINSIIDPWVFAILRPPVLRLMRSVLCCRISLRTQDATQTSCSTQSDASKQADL
Outline: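 HEK293 cells expressing ProLink-tagged EP2 and EA-fused β-arrestin 2 (enzyme fragment complementation) were seeded 24 h, pre-incubated with compound 15 min at 37 °C, then stimulated with 5 μM PGE2 (final) for 120 min.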

Sequence of PTRGER4 (EP4) (P35408 whole entry, looked up, the tested form may be a part): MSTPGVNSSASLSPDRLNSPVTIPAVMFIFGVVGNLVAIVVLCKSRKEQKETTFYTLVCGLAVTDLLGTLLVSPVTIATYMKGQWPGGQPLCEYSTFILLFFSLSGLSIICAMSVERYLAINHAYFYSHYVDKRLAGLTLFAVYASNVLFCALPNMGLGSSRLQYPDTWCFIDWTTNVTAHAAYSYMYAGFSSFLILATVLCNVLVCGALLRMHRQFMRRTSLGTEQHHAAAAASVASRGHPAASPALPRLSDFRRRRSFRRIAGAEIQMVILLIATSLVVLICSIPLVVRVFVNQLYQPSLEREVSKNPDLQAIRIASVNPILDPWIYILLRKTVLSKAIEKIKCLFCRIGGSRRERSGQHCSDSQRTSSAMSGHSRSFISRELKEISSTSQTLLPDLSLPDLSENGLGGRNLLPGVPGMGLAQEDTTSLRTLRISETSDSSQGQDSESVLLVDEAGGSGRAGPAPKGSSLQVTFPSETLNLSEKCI

Row | SMILES | IC50 (PTRGER4 (EP4)) [nM] | IC50 (PTGER2 (EP2)) [nM]
1 | Cc1cc(F)cc2c1cc(C)n2CCNc1cc(-c2ccc3cn[nH]c3c2)ncn1 [compound 7, [2-(6-Fluoro-2,4-dimethyl-indol-1-yl)-ethyl]-[6-(1H-indazol-6-yl)-pyrimidin-4-yl]-amine] | 556 | 98
2 | Cc1cc(F)cc2c1cc(C)n2CCNc1cc(-c2ccc3cc[nH]c3c2)ncn1 [compound 10, [2-(6-Fluoro-2,4-dimethyl-indol-1-yl)-ethyl]-[6-(1H-indol-6-yl)-pyrimidin-4-yl]-amine] | 691 | 69
3 | Cc1ccc(F)c2c1cc(C)n2CCNc1cc(-c2ccc3c(c2)CCN3)ncn1 [compound 11, [6-(2,3-Dihydro-1H-indol-5-yl)-pyrimidin-4-yl]-[2-(7-fluoro-2,4-dimethyl-indol-1-yl)-ethyl]-amine] | 124 | 20
4 | COc1cccc2c1cc(C)n2CCNc1cc(-c2ccc3c(c2)CCN3)ncn1 [compound 12, [6-(2,3-Dihydro-1H-indol-5-yl)-pyrimidin-4-yl]-[2-(4-methoxy-2-methyl-indol-1-yl)-ethyl]-amine] | 144 | 11
5 | COc1cccc2c1cc(C)n2CCNc1cc(-c2ccc(CO)c(C)c2)ncn1 [compound 13, (4-{6-[2-(4-Methoxy-2-methyl-indol-1-yl)-ethylamino]-pyrimidin-4-yl}-2-methyl-phenyl)-methanol] | 428 | 14
6 | Cc1cc2c(Cl)ccc(F)c2n1CCNc1cc(-c2cc(Cl)c(C(=O)O)s2)ncn1 [compound 14, 3-Chloro-5-{6-[2-(4-chloro-7-fluoro-2-methyl-indol-1-yl)-ethylamino]-pyrimidin-4-yl}-thiophene-2-carboxylic acid] | 82 | 4
7 | COc1cccc2c1cc(C)n2CCNc1cc(-c2ccc(CO)c(F)c2)ncn1 [compound 17, (2-Fluoro-4-{6-[2-(4-methoxy-2-methyl-indol-1-yl)-ethylamino]-pyrimidin-4-yl}-phenyl)-methanol] | 174 | 12
8 | Cc1ccc(F)c2c1cc(C)n2CCNc1cc(-c2cc(Cl)c(C(=O)O)s2)ncn1 [compound 18, 3-Chloro-5-{6-[2-(7-fluoro-2,4-dimethyl-indol-1-yl)-ethylamino]-pyrimidin-4-yl}-thiophene-2-carboxylic acid] | 123 | 27
9 | Cc1cc(F)cc2c1cc(C)n2CCNc1cc(-c2cc(Cl)c(C(=O)O)s2)ncn1 [compound 19, 3-Chloro-5-{6-[2-(6-fluoro-2,4-dimethyl-indol-1-yl)-ethylamino]-pyrimidin-4-yl}-thiophene-2-carboxylic acid] | 99 | 17
10 | Cc1cc(-c2cc(NCCn3c(C)cc4c(C)ccc(F)c43)ncn2)ccc1CO [compound 22] | 369 | 78
11 | COc1cccc2c1cc(C)n2CCNc1cc(-c2cc(Cl)c(C(=O)O)s2)ncn1 [compound 23, 3-Chloro-5-{6-[2-(4-methoxy-2-methyl-indol-1-yl)-ethylamino]-pyrimidin-4-yl}-thiophene-2-carboxylic acid] | 143 | 3
12 | COc1cccc2c1cc(C)n2CCNc1cc(-c2ccc(CN)c(F)c2)ncn1 [compound 24] | 895 | 94
13 | Cc1ccc(F)c2c1cc(C)n2CCNc1cc(-c2ccc(C(N)=O)cc2)ncn1 [compound 25, 4-{6-[2-(7-Fluoro-2,4-dimethyl-indol-1-yl)-ethylamino]-pyrimidin-4-yl}-benzamide] | 616 | 27
14 | CCc1cc(-c2cc(NCCn3c(C)cc4c(C)cccc43)ncn2)ccc1C(=O)O [compound 26, 4-{6-[2-(2,4-Dimethyl-indol-1-yl)-ethylamino]-pyrimidin-4-yl}-2-ethyl-benzoic acid] | 975 | 9
15 | COc1cc(-c2cc(NCCn3c(C)cc4c(C)ccc(F)c43)ncn2)ccc1CO [compound 30, (4-{6-[2-(7-Fluoro-2,4-dimethyl-indol-1-yl)-ethylamino]-pyrimidin-4-yl}-2-methoxy-phenyl)-methanol] | 243 | 34
16 | Cc1cc(-c2cc(NCCn3c(C)cc4c(C)ccc(F)c43)ncn2)ccc1C(=O)O [compound 31, 4-{6-[2-(7-Fluoro-2,4-dimethyl-indol-1-yl)-ethylamino]-pyrimidin-4-yl}-2-methyl-benzoic acid] | 543 | 24
17 | COc1ccc(F)c2c1cc(C)n2CCNc1cc(-c2ccc(CO)c(C)c2)ncn1 [compound 32, (4-{6-[2-(7-Fluoro-4-methoxy-2-methyl-indol-1-yl)-ethylamino]-pyrimidin-4-yl}-2-methyl-phenyl)-methanol] | 162 | 26
18 | COc1cc(-c2cc(NCCn3c(C)cc4c(C)cccc43)ncn2)ccc1C(=O)O [compound 35, 4-{6-[2-(2,4-Dimethyl-indol-1-yl)-ethylamino]-pyrimidin-4-yl}-2-methoxy-benzoic acid] | 952 | 15
19 | COc1cc(-c2cc(NCCn3c(C)cc4c(OC)cccc43)ncn2)ccc1CO [compound 36, (2-Methoxy-4-{6-[2-(4-methoxy-2-methyl-indol-1-yl)-ethylamino]-pyrimidin-4-yl}-phenyl)-methanol] | 219 | 5
20 | COc1cc(F)cc2c1cc(C)n2CCNc1cc(-c2cc(Cl)c(C(=O)O)s2)ncn1 [compound 38, 3-Chloro-5-{6-[2-(6-fluoro-4-methoxy-2-methyl-indol-1-yl)-ethylamino]-pyrimidin-4-yl}-thiophene-2-carboxylic acid] | 39 | 5
21 | COc1cccc2c1cc(C)n2CCNc1cc(-c2ccc(NC(N)=O)cc2)ncn1 [compound 39, (4-{6-[2-(4-Methoxy-2-methyl-indol-1-yl)-ethylamino]-pyrimidin-4-yl}-phenyl)-urea] | 515 | 19
22 | Cc1ccc(F)c2c1cc(C)n2CCNc1cc(-c2ccc(NC(N)=O)cc2)ncn1 [compound 40, (4-{6-[2-(7-Fluoro-2,4-dimethyl-indol-1-yl)-ethylamino]-pyrimidin-4-yl}-phenyl)-urea] | 392 | 86
23 | COc1ccc(F)c2c1cc(C)n2CCNc1cc(-c2ccc(C(N)=O)cc2)ncn1 [compound 42, 4-{6-[2-(7-Fluoro-4-methoxy-2-methyl-indol-1-yl)-ethylamino]-pyrimidin-4-yl}-benzamide] | 494 | 21
24 | Cc1cc2c(Cl)cc(Cl)cc2n1CCNc1cc(-c2cc(Cl)c(C(=O)O)s2)ncn1 [compound 44] | 240 | 5
25 | Cc1cc2c(Cl)ccc(F)c2n1CCNc1cc(-c2ccc(C(=O)O)cc2)ncn1 [compound 46] | 970 | 29

Further compounds by falling IC50 (PTRGER4 (EP4)), results first:

Row | IC50 (PTRGER4 (EP4)) [nM] | IC50 (PTGER2 (EP2)) [nM] | SMILES
26 | 678 | 3 | CCSc1cc(-c2cc(NCCn3c(C)cc4ccccc43)ncn2)ccc1C(=O)O [compound 33, 2-Ethylsulfanyl-4-{6-[2-(2-methyl-indol-1-yl)-ethylamino]-pyrimidin-4-yl}-benzoic acid]
27 | 575 | 18 | Cc1ccc(F)c2c1cc(C)n2CCNc1cc(-c2ccc(C(=O)O)c(Cl)c2)ncn1 [compound 29, 2-Chloro-4-{6-[2-(7-fluoro-2,4-dimethyl-indol-1-yl)-ethylamino]-pyrimidin-4-yl}-benzoic acid]
28 | 542 | 62 | Cc1ccc(F)c2c1cc(C)n2CCNc1cc(-c2ccc(C(=O)O)cc2)ncn1 [compound 15, 4-{6-[2-(7-Fluoro-2,4-dimethyl-indol-1-yl)-ethylamino]-pyrimidin-4-yl}-benzoic acid]
29 | 436 | 34 | Cc1ccc(F)c2c1cc(C)n2CCNc1cc(-c2ccc(S(=O)(=O)O)cc2)ncn1 [compound 37, 4-{6-[2-(7-Fluoro-2,4-dimethyl-indol-1-yl)-ethylamino]-pyrimidin-4-yl}-benzenesulfonic acid]
30 | 333 | 9 | COc1cccc2c1cc(C)n2CCNc1cc(-c2ccc3[nH]cnc3c2)ncn1 [compound 8, [6-(1H-Benzoimidazol-5-yl)-pyrimidin-4-yl]-[2-(4-methoxy-2-methyl-indol-1-yl)-ethyl]-amine]
31 | 328 | 94 | Cc1ccc(F)c2c1cc(C)n2CCNc1cc(-c2ccc(CO)c(Cl)c2)ncn1 [compound 20]
32 | 287 | 42 | Cc1ccc(F)c2c1cc(C)n2CCNc1cc(-c2ccc(CO)c(F)c2)ncn1 [compound 21, (2-Fluoro-4-{6-[2-(7-fluoro-2,4-dimethyl-indol-1-yl)-ethylamino]-pyrimidin-4-yl}-phenyl)-methanol]
33 | 249 | 17 | COc1ccc(F)c2c1cc(C)n2CCNc1cc(-c2ccc(CO)c(F)c2)ncn1 [compound 28, (2-Fluoro-4-{6-[2-(7-fluoro-4-methoxy-2-methyl-indol-1-yl)-ethylamino]-pyrimidin-4-yl}-phenyl)-methanol]
34 | 202 | 9 | COc1cccc2c1cc(C)n2CCNc1cc(-c2ccc(CO)c(Cl)c2)ncn1 [compound 16, (2-Chloro-4-{6-[2-(4-methoxy-2-methyl-indol-1-yl)-ethylamino]-pyrimidin-4-yl}-phenyl)-methanol]
35 | 91 | 101 | Cc1ccc(F)c2c1cc(C)n2CCNc1cc(-c2ccc(C(=O)O)c(N)c2)ncn1 [compound 41]
36 | 90 | 10 | COc1ccc(F)c2c1cc(C)n2CCNc1cc(-c2ccc(CO)c(Cl)c2)ncn1 [compound 27, (2-Chloro-4-{6-[2-(7-fluoro-4-methoxy-2-methyl-indol-1-yl)-ethylamino]-pyrimidin-4-yl}-phenyl)-methanol]
37 | 75 | 14 | Cc1cc(-c2cc(NCCn3c(C)cc4c(C)ccc(F)c43)ncn2)sc1C(=O)O [compound 45]
